# Measurements from BindingDB's records for doi:10.7270/Q2NV9GP9 (Burnham Center For Chemical Genomics, 2010).
# Structures can show the parent of a compound that is named as a salt.
# Biological target: T1, Apelin receptor (Homo sapiens, UniProt P35414)
# T1 sequence (P35414 whole entry): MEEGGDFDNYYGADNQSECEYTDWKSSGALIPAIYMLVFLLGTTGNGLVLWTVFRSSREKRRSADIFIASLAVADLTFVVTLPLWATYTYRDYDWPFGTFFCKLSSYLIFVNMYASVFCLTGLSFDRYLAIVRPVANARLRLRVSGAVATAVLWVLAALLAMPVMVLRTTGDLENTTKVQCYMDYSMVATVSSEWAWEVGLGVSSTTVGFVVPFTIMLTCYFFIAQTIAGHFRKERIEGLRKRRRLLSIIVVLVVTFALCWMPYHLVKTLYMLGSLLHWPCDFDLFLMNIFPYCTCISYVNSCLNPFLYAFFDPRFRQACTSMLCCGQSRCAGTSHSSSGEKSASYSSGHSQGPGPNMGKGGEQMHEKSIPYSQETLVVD
# Test: apelin receptor activators, concentration-response – cell-based, luminescence, uHTS hits, dose response (AID 488748)
row,EC50,SMILES
1,> 100 µM,CC1CCN(S(=O)(=O)c2ccc3nc(N4CCN(c5ccccc5)CC4)ccc3c2)CC1 [SMR000630335]
2,> 100 µM,COc1cc(NC(=S)NC(=O)CCc2ccccc2)cc(OC)c1 [SMR000668635]
3,> 100 µM,CN(C)CCCN(C(=O)c1ccc(S(=O)(=O)N2CCc3ccccc3C2)cc1)c1nc2ccc(F)cc2s1 [SMR000807789]
4,> 100 µM,Cc1cccc2sc(N(CCCN(C)C)C(=O)c3ccc(S(=O)(=O)N4CCc5ccccc5C4)cc3)nc12 [SMR000807812]
5,> 100 µM,CN(C)CCCN(C(=O)c1ccc(S(=O)(=O)N2CCc3ccccc3C2)cc1)c1nc2c(F)cccc2s1 [SMR000807825]
6,> 100 µM,CN(C)CCCN(C(=O)c1cc2cc([N+](=O)[O-])ccc2s1)c1nc2cc3c(cc2s1)OCCO3 [SMR000807865]
7,> 100 µM,"COC(=O)CCCC1=CC2=CC(=O)C(C)(OC(=O)c3cccs3)C(=O)C2=CN1C1CCCCC1 (stereo unspecified) [[2-cyclohexyl-3-(4-methoxy-4-oxobutyl)-7-methyl-6,8-dioxoisoquinolin-7-yl] thiophene-2-carboxylate]"
8,> 100 µM,"CCCCC1=CC2=CC(=O)C(C)(OC(=O)C3CCCC3)C(=O)C2=CO1 (stereo unspecified) [cyclopentanecarboxylic acid (3-butyl-7-methyl-6,8-dioxo-2-benzopyran-7-yl) ester]"
9,> 100 µM,"CCOC(=O)N1CCN(S(=O)(=O)c2ccc(C(=O)N(CCCN(C)C)c3nc4ccc(Cl)cc4s3)cc2)CC1 [ethyl 4-[4-[(6-chloranyl-1,3-benzothiazol-2-yl)-[3-(dimethylamino)propyl]carbamoyl]phenyl]sulfonylpiperazine-1-carboxylate;hydrochloride]"
10,> 100 µM,"CCOC(=O)C1C(Cn2cnc3ccccc32)=NC(=O)NC1c1cc(C)ccc1C (stereo unspecified) [ethyl 6-(benzimidazol-1-ylmethyl)-4-(2,5-dimethylphenyl)-2-oxidanylidene-3,4-dihydro-1H-pyrimidine-5-carboxylate]"
11,> 100 µM,"COC(=O)C1C(Cn2cnc3ccccc32)=NC(=O)NC1c1cc(C)ccc1C (stereo unspecified) [methyl 6-(benzimidazol-1-ylmethyl)-4-(2,5-dimethylphenyl)-2-oxo-3,4-dihydro-1H-pyrimidine-5-carboxylate]"
